In the experiment the target is T1, p53 Y220C (Homo sapiens, UniProt P04637, Y220C).
T1 construct: The recombinant protein was a truncation mutant containing only amino acids 94-312 of p53; made in house; host or cells: E. coli
T1 sequence (P04637 94-312, change not shown): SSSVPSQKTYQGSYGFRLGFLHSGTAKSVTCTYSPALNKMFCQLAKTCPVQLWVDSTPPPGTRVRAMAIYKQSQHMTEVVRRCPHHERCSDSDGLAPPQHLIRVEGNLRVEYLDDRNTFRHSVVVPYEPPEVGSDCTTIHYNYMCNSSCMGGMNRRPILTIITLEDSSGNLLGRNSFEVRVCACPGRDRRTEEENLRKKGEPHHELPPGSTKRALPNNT
The experiment can be described thus: In vitro DNA binding activity assay (HTRF / TR-FRET): stabilization of p53 Y220C and increase of its DNA binding activity. It is filed as biochemical. The conditions noted are these: recombinant His-tagged p53 Y220C DNA binding domain (aa 94-312), biotin-labeled consensus DNA, incubated at 27° C. or 29° C. for 60 min. In a few lines: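 Homogeneous time-resolved fluorescence with E. coli-derived p53 Y220C and biotinylated consensus DNA. Room-temperature incubations of 15 and 20 min precede reading. SC150 denotes the compound concentration required for 50% increased DNA binding.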
(In general: TR-FRET usually uses a lanthanide donor and a delayed reading to cut background.)
Turning to `CN(C)c1cc(S(C)(=O)=O)ccc1OCC#Cc1cc2c(N[C@H]3CC[C@H](N(C)C)CC3)cccc2n1CC(F)(F)F` [Compound 112A, (1R,4R)-N^4-(2-{3-[2-(dimethylamino)-4-methanesulfonyl-phenoxy]prop-1-yn-1-yl}-1-(2,2,2-trifluoroethyl)-1H-indol-4-yl)-N^1,N^1-dimethylcyclohexane-1,4-diamine], the “SC150 (concentration of the compound required to increase the DNA binding activity by 50%)” value is “+++ (+++ = 0.1 μM ≤ SC150 < 0.2 μM)”.
Turning to `CNC(=O)c1ccc(NCC#Cc2cc3c(N[C@H]4CC[C@H](N(C)C)CC4)cccc3n2CC(F)(F)F)c(OCC#N)c1` [Compound 113A, 3-(cyanomethoxy)-N-methyl-4-{[3-(4-{[(1R,4R)-4-(dimethyl-amino)cyclohexyl]amino}-1-(2,2,2-trifluoro-ethyl)-1H-indol-2-yl)prop-2-yn-1-yl]amino}benzamide], the “SC150 (concentration of the compound required to increase the DNA binding activity by 50%)” value was “+ (+ = 0 μM ≤ SC150 < 0.05 μM)”.
Consider `CNC(=O)c1ccc(NCC#Cc2cc3c(N[C@H]4CC[C@H](N(C)C)CC4)cccc3n2CC(F)(F)F)c(OCCC#N)c1` [Compound 114A, 3-(2-cyanoethoxy)-N-methyl-4-{[3-(4-{[(1R,4R)-4-(dimethyl-amino)cyclohexyl]amino}-1-(2,2,2-trifluoro-ethyl)-1H-indol-2-yl)prop-2-yn-1-yl]amino}benzamide], for which the “SC150 (concentration of the compound required to increase the DNA binding activity by 50%)” value is listed as “+ (+ = 0 μM ≤ SC150 < 0.05 μM)”.
For the molecule `CC(=O)Nc1cc(S(C)(=O)=O)ccc1OCC#Cc1cc2c(N[C@H]3CC[C@H](N(C)C)CC3)cccc2n1CC(F)(F)F` [Compound 115A, N-(5-methanesulfonyl-2-{[3-(4-{[(1R,4R)-4-(dimethylamino)cyclohexyl]amino}-1-(2,2,2-trifluoro-ethyl)-1H-indol-2-yl)prop-2-yn-1-yl]oxy}phenyl)acetamide], the “SC150 (concentration of the compound required to increase the DNA binding activity by 50%)” value is on record as “++ (++ = 0.05 μM ≤ SC150 < 0.1 μM)”.
Take `CN(C)[C@H]1CC[C@H](Nc2cccc3c2cc(C#CCNc2ccc(S(C)(=O)=O)cc2OCF)n3CC(F)(F)F)CC1` [Compound 117A, (1R,4R)—N^1-(2-(3-((2-(fluoromethoxy)-4-(methylsulfonyl)phenyl)amino)prop-1-yn-1-yl)-1-(2,2,2-trifluoroethyl)-1H-indol-4-yl)-N^4,N^4-dimethylcyclohexane-1,4-diamine]: the “SC150 (concentration of the compound required to increase the DNA binding activity by 50%)” value is reported as “+ (+ = 0 μM ≤ SC150 < 0.05 μM)”.
In the case of `CCS(=O)(=O)c1ccc(NCC#Cc2cc3c(N[C@H]4CC[C@H](N(C)C)CC4)cccc3n2CC(F)(F)F)c(OC)c1` [Compound 119A, (1R,4R)—N^4-[2-(3-{[4-(ethanesulfonyl)-2-methoxyphenyl]amino}prop-1-yn-1-yl)-1-(2,2,2-trifluoroethyl)-1H-indol-4-yl]-N^1,N^1-dimethylcyclohexane-1,4-diamine], the “SC150 (concentration of the compound required to increase the DNA binding activity by 50%)” value is listed as “+ (+ = 0 μM ≤ SC150 < 0.05 μM)”.
In the case of `CCS(=O)(=O)c1ccc(NCC#Cc2cc3c(N[C@H]4CC[C@@H](N(C)C)CC4)cccc3n2CC(F)(F)F)c(OC)c1` [Compound 120A, (1S,4S)—N^4-[2-(3-{[4-(ethanesulfonyl)-2-methoxyphenyl]amino}prop-1-yn-1-yl)-1-(2,2,2-trifluoroethyl)-1H-indol-4-yl]-N^1,N^1-dimethylcyclohexane-1,4-diamine] it was “+ (+ = 0 μM ≤ SC150 < 0.05 μM)”.
As for `COc1cc(C(C)(C)C#N)ccc1NCC#Cc1cc2c(N[C@H]3CC[C@H](N(C)C)CC3)cccc2n1CC(F)(F)F` [Compound 121A, 2-(3-methoxy-4-{[3-(4-{[(1R,4R)-4-(dimethylamino)cyclohexyl]amino}-1-(2,2,2-trifluoroethyl)-1H-indol-2-yl)prop-2-yn-1-yl]amino}phenyl)-2-methylpropanenitrile], the “SC150 (concentration of the compound required to increase the DNA binding activity by 50%)” value is “+ (+ = 0 μM ≤ SC150 < 0.05 μM)”.
Turning to `CN(C)[C@H]1CC[C@H](Nc2cccc3c2cc(C#CCNc2ccc(S(N)(=O)=O)cc2OCC#N)n3CC(F)(F)F)CC1` [Compound 123A, 3-(cyanomethoxy)-4-{[3-(4-{[(1R,4R)-4-(dimethylamino)cyclohexyl]amino}-1-(2,2,2-trifluoroethyl)-1H-indol-2-yl)prop-2-yn-1-yl]amino}benzene-1-sulfonamide], the “SC150 (concentration of the compound required to increase the DNA binding activity by 50%)” value is “+ (+ = 0 μM ≤ SC150 < 0.05 μM)”.
In the case of `CN(C)[C@H]1CC[C@H](Nc2cccc3c2cc(C#CCn2c(=O)oc4cc(S(C)(=O)=O)ccc42)n3CC(F)(F)F)CC1` [Compound 125A, 3-(3-(4-(((1R,4R)-4-(dimethylamino)cyclohexyl)amino)-1-(2,2,2-trifluoroethyl)-1H-indol-2-yl)prop-2-yn-1-yl)-6-(methylsulfonyl)benzo[d]oxazol-2 (3H)-one] it was “++++ (++++ = 0.2 μM ≤ SC150 < 1 μM)”; in that of `COc1cc(S(=O)(=O)N(C)C)ccc1NCC#Cc1cc2c(N[C@H]3CC[C@H](N(C)C)CC3)cccc2n1CC(F)(F)F` [Compound 127A, 3-methoxy-N,N-dimethyl-4-{[3-(4-{[(1R,4R)-4-(dimethylamino)cyclohexyl]amino}-1-(2,2,2-trifluoroethyl)-1H-indol-2-yl)prop-2-yn-1-yl]amino}benzene-1-sulfonamide], “+ (+ = 0 μM ≤ SC150 < 0.05 μM)”; in that of `COc1cc(Cl)ccc1NCC#Cc1cc2c(N[C@H]3CC[C@H](N(C)C)CC3)cccc2n1CC(F)(F)F` [Compound 130A, (1R,4R)—N^4-(2-{3-[(4-chloro-2-methoxyphenyl)amino]prop-1-yn-1-yl}-1-(2,2,2-trifluoroethyl)-1H-indol-4-yl)-N^1,N^1-dimethylcyclohexane-1,4-diamine], “+ (+ = 0 μM ≤ SC150 < 0.05 μM)”.
Consider `COc1cc(C(N)=O)c(F)cc1NCC#Cc1cc2c(N[C@H]3CC[C@H](N(C)C)CC3)cccc2n1CC(F)(F)F` [Compound 132A, 4-((3-(4-(((1R,4R)-4-(dimethylamino)cyclohexyl)amino)-1-(2,2,2-trifluoroethyl)-1H-indol-2-yl)prop-2-yn-1-yl)amino)-2-fluoro-5-methoxybenzamide], for which the “SC150 (concentration of the compound required to increase the DNA binding activity by 50%)” value is “+ (+ = 0 μM ≤ SC150 < 0.05 μM)”.
Consider `COc1cc(C(F)(F)F)ccc1NCC#Cc1cc2c(N[C@H]3CC[C@H](N(C)C)CC3)cccc2n1CC(F)(F)F` [Compound 134A, (1R,4R)—N^4-[2-(3-{[2-methoxy-4-(trifluoromethyl)phenyl]amino}prop-1-yn-1-yl)-1-(2,2,2-trifluoroethyl)-1H-indol-4-yl]-N^1,N^1-dimethylcyclohexane-1,4-diamine], for which the “SC150 (concentration of the compound required to increase the DNA binding activity by 50%)” value is on record as “+ (+ = 0 μM ≤ SC150 < 0.05 μM)”.
Consider `CNC(=O)c1cc(OC)c(NCC#Cc2cc3c(N[C@H]4CC[C@H](N(C)C)CC4)cccc3n2CC(F)(F)F)cc1F` [Compound 136A, 2-fluoro-5-methoxy-N-methyl-4-{[3-(4-{[(1R,4R)-4-(dimethylamino)cyclohexyl]amino}-1-(2,2,2-trifluoroethyl)-1H-indol-2-yl)prop-2-yn-1-yl]amino}benzamide], for which the “SC150 (concentration of the compound required to increase the DNA binding activity by 50%)” value was “+ (+ = 0 μM ≤ SC150 < 0.05 μM)”.
As for `CN(C)[C@H]1CC[C@@H](Nc2cccc3c2cc(C#CCNc2ccc(S(C)(=O)=O)cc2C(F)(F)F)n3CC(F)(F)F)CC1` [Compound 138A, (1S,4S)-N^4-[2-(3-{[4-methanesulfonyl-2-(trifluoromethyl)phenyl]amino}prop-1-yn-1-yl)-1-(2,2,2-trifluoroethyl)-1H-indol-4-yl]-N^1,N^1-dimethylcyclohexane-1,4-diamine], the “SC150 (concentration of the compound required to increase the DNA binding activity by 50%)” value was “+++ (+++ = 0.1 μM ≤ SC150 < 0.2 μM)”.
For `CN(C)[C@H]1CC[C@H](Nc2cccc3c2cc(C#CCNc2ccc(S(C)(=O)=O)cc2C(F)(F)F)n3CC(F)(F)F)CC1` [Compound 139A, (1R,4R)-N^4-[2-(3-{[4-methanesulfonyl-2-(trifluoromethyl)phenyl]amino}prop-1-yn-1-yl)-1-(2,2,2-trifluoroethyl)-1H-indol-4-yl]-N^1,N^1-dimethylcyclohexane-1,4-diamine], the “SC150 (concentration of the compound required to increase the DNA binding activity by 50%)” value is on record as “+ (+ = 0 μM ≤ SC150 < 0.05 μM)”.
For the molecule `Cc1cc(S(C)(=O)=O)ccc1NCC#Cc1cc2c(N[C@H]3CC[C@H](N(C)C)CC3)cccc2n1CC(F)(F)F` [Compound 140A], the “SC150 (concentration of the compound required to increase the DNA binding activity by 50%)” value was “+ (+ = 0 μM ≤ SC150 < 0.05 μM)”.
With `CN(C)[C@H]1CC[C@H](Nc2cccc3c2cc(C#CCNc2ccc(S(C)(=O)=O)cc2OC(F)(F)F)n3CC(F)(F)F)CC1` [Compound 142A], the “SC150 (concentration of the compound required to increase the DNA binding activity by 50%)” value is “+ (+ = 0 μM ≤ SC150 < 0.05 μM)”.
In the case of `CCN(CC)[C@H]1CC[C@H](Nc2cccc3c2cc(C#CCNc2ccc(C(=O)NC)cc2OC)n3CC(F)(F)F)CC1` [Compound 144A, 3-methoxy-N-methyl-4-{[3-(4-([(1R,4R)-4-(diethylamino)cyclohexyl]amino}-1-(2,2,2-trifluoro-ethyl)-1H-indol-2-yl)prop-2-yn-1-yl]amino}benzamide], the “SC150 (concentration of the compound required to increase the DNA binding activity by 50%)” value was “+ (+ = 0 μM ≤ SC150 < 0.05 μM)”.
Turning to `CCN(CC)[C@H]1CC[C@H](Nc2cccc3c2cc(C#CCNc2ccc(S(N)(=O)=O)cc2OC)n3CC(F)(F)F)CC1` [Compound 146A, 3-methoxy-4-{[3-(4-{[(1R,4R)-4-(diethyl-amino)cyclohexyl]amino}-1-(2,2,2-trifluoroethyl)-1H-indol-2-yl)prop-2-yn-1-yl]amino}benzene-1-sulfonamide], the “SC150 (concentration of the compound required to increase the DNA binding activity by 50%)” value was “+ (+ = 0 μM ≤ SC150 < 0.05 μM)”.
As to `CCN(CC)[C@H]1CC[C@H](Nc2cccc3c2cc(C#CCNc2ccc(S(=O)(=O)NC)cc2OC)n3CC(F)(F)F)CC1` [Compound 148A, 3-methoxy-N-methyl-4-{[3-(4-{[(1R,4R)-4-(diethylamino)cyclohexyl]amino}-1-(2,2,2-trifluoroethyl)-1H-indol-2-yl)prop-2-yn-1-yl]amino}benzene-1-sulfonamide], the “SC150 (concentration of the compound required to increase the DNA binding activity by 50%)” value is “+ (+ = 0 μM ≤ SC150 < 0.05 μM)”.

For the origin of these results see patent US12428406B2 (PMV Pharmaceuticals, Inc., priority 2019, dated 2025).
